pIC50: −log10 of the molar value. Numbered stars: 1 amine (or outer) side, 2 acyl side, 3 side chain; on linkers, the order of the positions; unused ones are H or OH. Bridge positions count the residues as written; N and C are the ends. Square brackets hold non-standard residues; d marks the D form. Peptide text beside a SMILES is read from it. * marks the point of attachment. Tartaroyl(2R,3R-(OAc)2) = CC(=O)O[C@@H](C(=O)[*:1])[C@@H](OC(C)=O)C(=O)[*:2]; Phe(3,4-(OMe)2) = COc1ccc(C[C@H](N)C(=O)O)cc1OC; Phe(4-CF3) = N[C@@H](Cc1ccc(C(F)(F)F)cc1)C(=O)O; dPhe(3-CF3) = N[C@H](Cc1cccc(C(F)(F)F)c1)C(=O)O; dPhe(4-CF3) = N[C@H](Cc1ccc(C(F)(F)F)cc1)C(=O)O; Phe(4-COOH) = N[C@@H](Cc1ccc(C(=O)O)cc1)C(=O)O; dPhe(3-OMe) = COc1cccc(C[C@@H](N)C(=O)O)c1; Bip = N[C@@H](Cc1ccc(-c2ccccc2)cc1)C(=O)O; dPhe(4-NH2) = Nc1ccc(C[C@@H](N)C(=O)O)cc1; Phe(4-Br) = N[C@@H](Cc1ccc(Br)cc1)C(=O)O; Phe(4-NH2) = Nc1ccc(C[C@H](N)C(=O)O)cc1; Ala(2-furyl) = N[C@@H](Cc1ccco1)C(=O)O; d(hPhe) = N[C@H](CCc1ccccc1)C(=O)O; hPhe = N[C@@H](CCc1ccccc1)C(=O)O; 4Pal = N[C@@H](Cc1ccncc1)C(=O)O; 2Thi = N[C@@H](Cc1cccs1)C(=O)O; d2Thi = N[C@H](Cc1cccs1)C(=O)O; Suc = O=C(CCC(=O)[*:2])[*:1]; OtBu = CC(C)(C)O*; βAla = NCCC(=O)O A value given as a limit tells only on which side of the number the result lay.

The text below walks through data of patent US8338565B2, “Macrocyclic compounds for inhibition of tumor necrosis factor alpha” (Ensemble Therapeutics Corporation, priority 2008, dated 2012).

In the first assay the target is T1, TNFα / TNFα receptor (TNFα R1/Fc) (Homo sapiens, UniProt P01375).
T1 construct: purchased R&D Systems
T1 sequence (P01375 77-233 limits assumed, species assumed): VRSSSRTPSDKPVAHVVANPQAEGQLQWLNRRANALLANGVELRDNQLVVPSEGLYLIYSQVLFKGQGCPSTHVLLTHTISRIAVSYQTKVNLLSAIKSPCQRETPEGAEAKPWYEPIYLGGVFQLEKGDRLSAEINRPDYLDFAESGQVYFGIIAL
Kind of assay: Inhibition of binding of TNFα to the TNFα receptor (plate ELISA competition). The note with it: Activity (IC50, inhibition of TNFα binding to TNFα R1/Fc), Table 2. Put shortly: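 Plates were coated with TNFα at 15 nM. Test compound and 8.33 nM receptor-Fc (PBST, 2% DMSO) were first mixed in solution for 30 min at room temperature, then transferred to the plates for another 30 min. Competition was read by absorbance at 450 nm after HRP anti-human IgG Fc detection with TMB.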
On the technique in general: In an ELISA, binding on a coated surface is turned into a signal by an enzyme label.
In turn, `O=C1COc2ccc(cc2)C[C@@H](C(=O)NCCO)NC(=O)[C@H](Cc2ccccc2)NC(=O)[C@H](Cc2ccc(-c3ccccc3)cc2)NC(=O)[C@H](Cc2cccs2)N1` [Compound 338] gave a pIC50 of 4.52 to 5.00.

The same assay, now with this note: Table 2; read-out: Activity (IC50, inhibition of TNFα binding to TNFα R1/Fc).
As for `CC(=O)O[C@H]1C(=O)Nc2ccc(cc2)C[C@H](C(=O)O)NC(=O)[C@@H](CCc2ccccc2)NC(=O)[C@H](Cc2ccc(Br)cc2)NC(=O)[C@@H](Cc2cccs2)NC(=O)[C@@H]1OC(C)=O` [Compound 219] ([d2Thi][Phe(4-Br)][d(hPhe)][dPhe(4-NH2)]-OH; linker N-4 via Tartaroyl(2R,3R-(OAc)2)), the pIC50 is > 5.00.
On the same count and under the same terms, as for `N#Cc1ccccc1C[C@H]1NC(=O)[C@H](O)[C@@H](O)C(=O)Nc2ccc(cc2)C[C@@H](C(=O)O)NC(=O)[C@@H](Cc2ccccc2)NC(=O)[C@H](Cc2ccc(-c3ccccc3)cc2)NC1=O` [Compound 314], the figure is 4.52 to 5.00; as for `O=C1CCC(=O)N[C@H](CCc2ccccc2)C(=O)N[C@@H](Cc2ccc(C(F)(F)F)cc2)C(=O)N[C@@H](Cc2ccco2)C(=O)N[C@H](C(=O)O)Cc2ccc(cc2)N1` [Compound 224] ([d(hPhe)][Phe(4-CF3)][Ala(2-furyl)][Phe(4-NH2)]-OH; linker N-4 via Suc), < 4.00; as for `O=C1COc2ccc(cc2)C[C@@H](C(=O)O)NC(=O)[C@@H](CCc2ccccc2)NC(=O)[C@H](Cc2ccc([N+](=O)[O-])cc2)NC(=O)[C@@H](Cc2cccs2)N1` [Compound 541], < 4.00.
On the same count and under the same terms, with `O=C1COc2ccc(cc2)C[C@@H](C(=O)O)NC(=O)[C@H](CCc2ccccc2)NC(=O)[C@@H](Cc2ccc(-c3ccccc3)cc2)NC(=O)[C@H](Cc2ccc(Cl)cc2)N1` [Compound 707] the figure was > 5.00.
The same measure, in the same setting: with `O=C(O)[C@@H]1Cc2ccc(cc2)NC(=O)[C@H](O)[C@@H](O)C(=O)N[C@H](Cc2cccs2)C(=O)N[C@@H](Cc2ccc(-c3ccc(F)cc3)cc2)C(=O)N[C@H](Cc2ccccc2)C(=O)N1` [Compound 334] the figure was 4.00 to 4.52; with `O=C(O)[C@H](Cc1ccccc1)NC(=O)[C@@H]1Cc2ccc(cc2)NC(=O)[C@H](O)[C@@H](O)C(=O)N[C@H](Cc2cccs2)C(=O)N[C@@H](Cc2ccc(-c3ccc(Cl)cc3)cc2)C(=O)N[C@H](Cc2ccccc2)C(=O)N1` [Compound 443], 4.52 to 5.00; with `O=C1CCC(=O)N[C@H](Cc2cccs2)C(=O)N[C@@H](Cc2cccs2)C(=O)N[C@H](Cc2ccccc2)C(=O)N[C@H](C(=O)O)Cc2ccc(cc2)N1` [Compound 97] ([d2Thi][2Thi][dF][Phe(4-NH2)]-OH; linker N-4 via Suc), < 4.00.
Turning to `O=C1COc2ccc(cc2)C[C@@H](C(=O)N[C@H](Cc2ccccc2)C(=O)O)NC(=O)[C@H](CCc2ccccc2)NC(=O)[C@@H](Cc2ccc(-c3ccccc3)cc2)NC(=O)[C@H](Cc2ccc(-c3ccccc3)cc2)N1` [Compound 573], the pIC50 is > 5.00.
On the same count and under the same terms, with `C[C@H](NC(=O)[C@@H]1Cc2ccc(cc2)OCC(=O)N[C@@H](Cc2cccs2)C(=O)N[C@H](Cc2ccc(-c3ccccc3)cc2)C(=O)N[C@@H](CCc2ccccc2)C(=O)N1)C(=O)O` [Compound 473] the figure was > 5.00.
On to `COc1cccc(C[C@H]2NC(=O)CCC(=O)Nc3ccc(cc3)C[C@@H](C(=O)O)NC(=O)[C@@H](Cc3ccccc3)NC(=O)[C@H](Cc3ccc(C(F)(F)F)cc3)NC2=O)c1` [Compound 138] ([dPhe(3-OMe)][Phe(4-CF3)][dF][Phe(4-NH2)]-OH; linker N-4 via Suc), for which the pIC50 was < 4.00.
In the case of `O=C1COc2ccc(cc2)C[C@@H](C(=O)O)NC(=O)[C@H](c2ccccc2)NC(=O)[C@H](Cc2ccc(-c3ccccc3)cc2)NC(=O)[C@H](Cc2cccs2)N1` [Compound 291], the pIC50 was < 4.00.
With `O=C1COc2ccc(cc2)C[C@H](C(=O)O)NC(=O)[C@H](Cc2c[nH]c3ccccc23)NC(=O)[C@@H](Cc2ccc(-c3ccccc3)cc2)NC(=O)[C@H](Cc2c[nH]c3ccccc23)N1` [Compound 731], the pIC50 is 4.52 to 5.00.
Same read-out and setting: as for `O=C(O)C[C@@H]1Cc2ccc(cc2)NC(=O)[C@H](O)[C@@H](O)C(=O)N[C@H](Cc2cccs2)C(=O)N[C@@H](Cc2ccc(-c3ccccc3)cc2)C(=O)N[C@H](Cc2ccccc2)C(=O)N1` [Compound 309], the figure is 4.52 to 5.00; as for `O=C1CCC(=O)N[C@H](Cc2cccs2)C(=O)N[C@@H](Cc2ccc(-c3ccccc3)cc2)C(=O)N[C@H](Cc2ccc(C(F)(F)F)cc2)C(=O)N[C@H](C(=O)O)Cc2ccc(cc2)N1` [Compound 79] ([d2Thi][Bip][dPhe(4-CF3)][Phe(4-NH2)]-OH; linker N-4 via Suc), < 4.00; as for `O=C1CCC(=O)N[C@H](Cc2cccs2)C(=O)N[C@@H](Cc2ccc(-c3ccccc3)cc2)C(=O)N[C@@H](Cc2ccccc2)C(=O)N[C@H](C(=O)O)Cc2ccc(cc2)N1` [Compound 195] ([d2Thi][Bip]F[Phe(4-NH2)]-OH; linker N-4 via Suc), < 4.00.
With `O=C1CCC(=O)N[C@H](CCc2ccccc2)C(=O)N[C@@H](Cc2ccc(-c3cccc(F)c3)cc2)C(=O)N[C@H](Cc2ccccc2)C(=O)N[C@H](C(=O)O)Cc2ccc(cc2)N1` [Compound 181], the pIC50 is 4.52 to 5.00.
On the same count and under the same terms, with `Cc1ccc(S(=O)(=O)NCCNC(=O)[C@@H]2Cc3ccc(cc3)OCC(=O)N[C@@H](Cc3cccs3)C(=O)N[C@H](Cc3ccc(-c4ccccc4)cc3)C(=O)N[C@@H](CCc3ccccc3)C(=O)N2)cc1` [Compound 484] the figure was < 4.00.
`O=C1CCC(=O)N[C@H](Cc2cccs2)C(=O)N[C@@H](Cc2ccc(-c3ccccc3)cc2)C(=O)N[C@@H](Cc2ccncc2)C(=O)N[C@H](C(=O)O)Cc2ccc(cc2)N1` [Compound 49] ([d2Thi][Bip][4Pal][Phe(4-NH2)]-OH; linker N-4 via Suc): the pIC50 was < 4.00.
`O=C(O)CC[C@@H]1NC(=O)[C@H](Cc2ccc(-c3ccccc3)cc2)NC(=O)[C@@H](Cc2cccs2)NC(=O)CCC(=O)Nc2ccc(cc2)C[C@@H](C(=O)O)NC1=O` [Compound 68] ([d2Thi][Bip]E[Phe(4-NH2)]-OH; linker N-4 via Suc): the pIC50 is < 4.00.
For `O=C1COc2ccc(cc2)C[C@@H](C(=O)O)NC(=O)[C@@H]2CCCN2C(=O)[C@@H](Cc2ccc(-c3ccccc3)cc2)NC(=O)[C@H](Cc2cccs2)N1` [Compound 250], the pIC50 is < 4.00.
As to `O=C1COc2ccc(cc2)C[C@@H](C(=O)O)NC(=O)[C@H](CCc2ccccc2)NC(=O)[C@@H](CCc2ccccc2)NC(=O)[C@H](CCc2ccccc2)N1` [Compound 724], the pIC50 was > 5.00.
Consider `COc1cccc(C[C@@H]2NC(=O)COc3ccc(cc3)C[C@@H](C(=O)O)NC(=O)[C@H](CCc3ccccc3)NC(=O)[C@@H](Cc3ccc(-c4ccccc4)cc3)NC2=O)c1` [Compound 680], for which the pIC50 was > 5.00.
For the compound `O=C1COc2ccc(cc2)C[C@@H](C(=O)NC2(C(=O)O)CC2)NC(=O)[C@H](CCc2ccccc2)NC(=O)[C@@H](Cc2ccc(-c3ccccc3)cc2)NC(=O)[C@H](Cc2cccs2)N1` [Compound 478], the pIC50 is > 5.00.
As for `O=C1COc2ccc(cc2)C[C@@H](C(=O)N[C@H](CCc2ccccc2)C(=O)O)NC(=O)[C@H](Cc2c[nH]c3ccccc23)NC(=O)[C@@H](Cc2ccc(-c3ccccc3)cc2)NC(=O)[C@H](Cc2c[nH]c3ccccc23)N1` [Compound 744], the pIC50 is > 5.00.
The same measure, in the same setting: with `O=C1COc2ccc(cc2)C[C@@H](C(=O)O)NC(=O)[C@H](Cc2ccc(-c3ccccc3)cc2)NC(=O)[C@@H](Cc2ccc(-c3ccccc3)cc2)NC(=O)[C@H](CCc2ccccc2)N1` [Compound 725] the figure was > 5.00; with `O=C1COc2ccc(cc2)C[C@@H](C(=O)O)NC(=O)[C@H](CCc2ccccc2)NC(=O)[C@@H](Cc2ccc(-c3ccccc3)cc2)NC(=O)[C@H](Cc2cccc(C(F)(F)F)c2)N1` [Compound 690], 4.52 to 5.00.
Same read-out and setting: as for `O=C1CCC(=O)N[C@H](Cc2cccc(C(F)(F)F)c2)C(=O)N[C@@H](Cc2ccc(C(F)(F)F)cc2)C(=O)N[C@H](Cc2ccccc2)C(=O)N[C@H](C(=O)O)Cc2ccc(cc2)N1` [Compound 166] ([dPhe(3-CF3)][Phe(4-CF3)][dF][Phe(4-NH2)]-OH; linker N-4 via Suc), the figure is 4.00 to 4.52; as for `O=C1CCNC(=O)c2ccc(cc2)C[C@@H](C(=O)O)NC(=O)[C@@H](Cc2ccccc2)NC(=O)[C@H](Cc2ccc(-c3ccccc3)cc2)NC(=O)[C@H](CCc2ccccc2)N1` [Compound 467] ([βAla][hPhe][Bip][dF][Phe(4-COOH)]-OH; lactam N-5), < 4.00; as for `COc1ccc(C[C@@H]2NC(=O)[C@@H](Cc3cccs3)NC(=O)CCC(=O)Nc3ccc(cc3)C[C@@H](C(=O)O)NC(=O)[C@@H](Cc3ccccc3)NC2=O)cc1OC` [Compound 93] ([d2Thi][Phe(3,4-(OMe)2)][dF][Phe(4-NH2)]-OH; linker N-4 via Suc), < 4.00.
On the same count and under the same terms, with `O=C1COc2ccc(cc2)C[C@@H](C(=O)O)NC(=O)[C@H](CCc2ccccc2)NC(=O)[C@H](Cc2ccc(-c3ccccc3)cc2)NC(=O)[C@H](Cc2cccs2)N1` [Compound 254] the figure was 4.52 to 5.00.
`CC(C)(C)OC(=O)CC[C@H]1NC(=O)[C@H](Cc2ccc(-c3ccccc3)cc2)NC(=O)[C@@H](Cc2cccs2)NC(=O)CCC(=O)Nc2ccc(cc2)C[C@@H](C(=O)O)NC1=O` [Compound 67] ([d2Thi][Bip][dE](OtBu)[Phe(4-NH2)]-OH; linker N-4 via Suc): the pIC50 is 4.00 to 4.52.
Same read-out and setting: with `O=C(O)CCCNC(=O)[C@@H]1Cc2ccc(cc2)OCC(=O)N[C@@H](Cc2c[nH]c3ccccc23)C(=O)N[C@H](Cc2ccc(-c3ccccc3)cc2)C(=O)N[C@@H](CCc2ccccc2)C(=O)N1` [Compound 720] the figure was > 5.00.
Same read-out and setting: as for `O=C1COc2ccc(cc2)C[C@@H](C(=O)O)NC(=O)[C@H](CCc2ccccc2)NC(=O)[C@@H](Cc2ccc(-c3ccccc3)cc2)NC(=O)[C@H](Cc2ccccc2)N1` [Compound 511], the figure is > 5.00; as for `O=C1COc2ccc(cc2)C[C@@H](C(=O)N[C@H](CO)C(=O)O)NC(=O)[C@H](CCc2ccccc2)NC(=O)[C@@H](Cc2ccc(-c3ccccc3)cc2)NC(=O)[C@H](Cc2ccc(-c3ccncc3)cc2)N1` [Compound 584], > 5.00.
